Measured values from the supplement of paper PMC10307832.

Legend:
Test in all cases: relative viability (nuclei count vs DMSO), 5 days (fraction); higher = more cells survive
[1] = compound: C1COCCN1C2=NC(=NC3=C2OC4=C3C=CC=N4)C5=CC(=CC=C5)NC(=O)C6=CN=C(C=C6)N + Cc1nc(Nc2ncc(C(=O)Nc3c(C)cccc3Cl)s2)cc(N2CCN(CCO)CC2)n1 [Dasatinib] (partner 0.075 µM)
Method in brief: (§1)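 A single step with final 0.05% Triton X-100, 1% formaldehyde and 1 ug/ml Hoechst fixed the cells and stained nuclei 5 days after treatment. Lung cancer cell lines in 1536-well plates had been treated by pin tool the day after seeding with one drug alone or a fixed anchor-drug dose plus five library-drug doses (not always all listed) in √10 steps, and nuclei were counted on 4× images. Relative viability is the ratio of nuclei in treated wells to nuclei in vehicle wells, taken as the median of duplicate plates.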

SGI-1776 + Pictilisib = compound: CN1CCC(CNc2ccc3ncc(-c4cccc(OC(F)(F)F)c4)n3n2)CC1 [SGI-1776] + CS(=O)(=O)N1CCN(Cc2cc3nc(-c4cccc5[nH]ncc45)nc(N4CCOCC4)c3s2)CC1 [Pictilisib] (partner 1 µM)
Method in brief: as §1

Entinostat + Luminespib = compound: Nc1ccccc1NC(=O)c1ccc(CNC(=O)OCc2cccnc2)cc1 [Entinostat] + CCNC(=O)c1noc(-c2cc(C(C)C)c(O)cc2O)c1-c1ccc(CN2CCOCC2)cc1 [Luminespib] (partner 0.01 µM)
Method in brief: as §1

Entinostat + Lapatinib = compound: Nc1ccccc1NC(=O)c1ccc(CNC(=O)OCc2cccnc2)cc1 [Entinostat] + CS(=O)(=O)CCNCc1ccc(-c2ccc3ncnc(Nc4ccc(OCc5cccc(F)c5)c(Cl)c4)c3c2)o1 [Lapatinib] (partner 2 µM)
Method in brief: as §1

Cell Line | relative viability ([1]; first compound 0.02 µM) | relative viability ([1]; first compound 0.06325 µM) | relative viability ([1]; first compound 0.2 µM) | relative viability ([1]; first compound 0.6325 µM) | relative viability ([1]; first compound 2 µM) | relative viability (SGI-1776 + Pictilisib; first compound 0.08 µM) | relative viability (SGI-1776 + Pictilisib; first compound 0.8 µM) | relative viability (SGI-1776 + Pictilisib; first compound 2.53 µM) | relative viability (SGI-1776 + Pictilisib; first compound 8 µM) | relative viability (Entinostat + Luminespib; first compound 0.02 µM) | relative viability (Entinostat + Luminespib; first compound 0.06325 µM) | relative viability (Entinostat + Luminespib; first compound 0.2 µM) | relative viability (Entinostat + Luminespib; first compound 0.6325 µM) | relative viability (Entinostat + Luminespib; first compound 2 µM) | relative viability (Entinostat + Lapatinib; first compound 0.02 µM) | relative viability (Entinostat + Lapatinib; first compound 0.06325 µM) | relative viability (Entinostat + Lapatinib; first compound 0.2 µM) | relative viability (Entinostat + Lapatinib; first compound 0.6325 µM) | relative viability (Entinostat + Lapatinib; first compound 2 µM)
LC-2-ad | 0.629 | 0.716 | 0.52 | 0.435 | 0.417 | 0.428 | 0.522 | 0.544 | 0.254 | 1.04 | 0.936 | 0.816 | 0.65 | 0.298 | 0.975 | 0.904 | 0.907 | 0.334 | 0.113
ABC-1 | 0.586 | 0.612 | 0.523 | 0.587 | 0.54 | 0.675 | 0.666 | 0.745 | 0.66 | 0.661 | 0.49 | 0.609 | 0.555 | 0.358 | 1.43 | 1.38 | 1.56 | 1.38 | 1.21
NCI-H596 | 0.607 | 0.621 | 0.545 | 0.739 | 0.5 | 0.43 | 0.383 | 0.365 | 0.298 | 0.836 | 0.935 | 0.992 | 0.905 | 0.597 | 1.06 | 1.13 | 1.07 | 0.81 | 0.709
NCI-H1734 | 0.502 | 0.544 | 0.436 | 0.397 | 0.262 | 0.468 | 0.472 | 0.396 | 0.332 | 0.227 | 0.204 | 0.185 | 0.213 | 0.181 | 1.16 | 1.11 | 1.05 | 0.787 | 0.481
LOU-NH91 | 0.537 | 0.546 | 0.587 | 0.56 | 0.357 | 0.565 | 0.55 | 0.505 | 0.504 | 0.341 | 0.333 | 0.371 | 0.394 | 0.337 | 0.781 | 0.848 | 0.769 | 0.765 | 0.561
NCI-H2170 | 0.561 | 0.507 | 0.551 | 0.538 | 0.618 | 0.297 | 0.281 | 0.284 | 0.238 | 0.778 | 0.654 | 0.643 | 0.47 | 0.329 | 0.289 | 0.3 | 0.304 | 0.244 | 0.216
NCI-H1793 | 0.378 | 0.453 | 0.417 | 0.334 | 0.383 | 0.301 | 0.256 | 0.399 | 0.314 | 0.224 | 0.157 | 0.177 | 0.171 | 0.161 | 0.695 | 1.07 | 0.617 | 0.393 | 0.328
NCI-H322M | 0.251 | 0.251 | 0.241 | 0.274 | 0.234 | 0.571 | 0.483 | 0.473 | 0.445 | 0.909 | 1.13 | 1.06 | 1.1 | 1.03 | 0.643 | 0.612 | 0.623 | 0.647 | 0.621
PC-3 [JPC-3] | 1.18 | 1.08 | 1.02 | 0.818 | 0.629 | 0.72 | 0.779 | 0.768 | 0.478 | 0.726 | 0.668 | 0.5 | 0.51 | 0.365 | 0.448 | 0.451 | 0.397 | 0.348 | 0.302
EPLC-272H | 0.295 | 0.359 | 0.267 | 0.309 | 0.219 | 0.315 | 0.318 | 0.188 | 0.259 | 0.209 | 0.187 | 0.31 | 0.262 | 0.264 | 0.951 | 0.831 | 1.27 | 0.365 | 0.334
A-427 | 0.805 | 0.77 | 0.61 | 0.648 | 0.589 | 0.704 | 0.694 | 0.824 | 0.657 | 1.01 | 1.03 | 0.83 | 0.651 | 0.582 | 1.16 | 1.08 | 1.07 | 0.983 | 0.83
